Measurements reported in patent EP0046377A1, “Cycloalkenylcarboxamido derivatives of tetramisole, their preparation and use in medicine” (BEECHAM GROUP PLC, priority 1980, dated 1982).
Structures can show the parent of a compound that is named as a salt.

Tests used:
Type in all cases: in vivo
Nematospiroides dubius = test: Oral administration to mice infected with Nematospiroides dubius; % reduction in worm numbers versus untreated infected controls; conditions: % reduction in numbers of worms vs untreated infected controls; for inhibition in vivo at 5 mg/kg / inhibition in vivo at 50 mg/kg: Heligmosomoides polygyrus
Method: The compounds of Examples 1 to 15 were each administered orally to mice infected with Nematospiroides dubius at various dosages. Activity was calculated as % reduction in the numbers of worms in treated as opposed to control (untreated, infected) animals.

adult Brugia pahangi = test: Activity against Brugia pahangi in the cat (macrofilaricidal activity); conditions: five daily doses at 5 mg/kg s.c.
Method: Five daily doses of the laevo amide of Example 12a administered at 5 mg/kg s.c. to a cat infected with adult Brugia pahangi was 100% effective against this parasite.

ascarids = test: Activity against dog parasites: ascarids; conditions: single oral dose of 7.5 mg/kg
Method: (§1) A single oral dose of 7.5 mg/kg of the laevo amide of Example 12a to a dog was 100% effective against ascarids, hookworm and whipworm.

whipworm = test: Activity against dog parasites: whipworm; conditions: single oral dose of 7.5 mg/kg
Method: as §1

Sheep Roundworms = test: Activity against sheep roundworms (mixed roundworm infection)
Method: (§2) A single subcutaneous injection of 5 mg/kg of the laevo amide of Example 12a, as a solution of its hydrochloride (in a mixture of propylene glycol, 70%; benzyl alcohol, 4%; and made up to 100% with water), to a sheep with a mixed roundworm infection, removed >99.9% of all worms present and was 100% active against lungworm.

lungworm = test: Activity against lungworm in a sheep with mixed roundworm infection; conditions: single subcutaneous injection of 5 mg/kg, solution of hydrochloride
Method: as §2

hookworm = test: Activity against dog parasites: hookworm; conditions: single oral dose of 7.5 mg/kg
Method: as §1

Fluke = test: Test to demonstrate fluke activity in an artificially infected sheep; conditions: sheep infected with 100 metacercariae, treated orally at 30 mg/kg 4-5 months later
Method: A sheep was artificially infected with 100 metacercariae and 4 - 5 months later was treated, orally, with 6-[3-(3-cyclohexen-1-ylcarboxamido)-phenyl7-2,3,5,6-tetrahydroimidazo [2,1-b]thiazole at 30 mg/kg.

Structure (SMILES)	inhibition in vivo at 5 mg/kg (Nematospiroides dubius; Dose 5 mg/kg) [%]	inhibition in vivo at 50 mg/kg (Nematospiroides dubius; Dose 50 mg/kg) [%]	other results
CC1(C)C=C(C(=O)Nc2cccc(C3CN4CCSC4=N3)c2)C=CC1 (stereo not shown) [Example 2, 6-[3-(3,3-dimethyl-1,5-cyclohexadien-1-ylcarboxamido)phenyl]-2,3,5,6-tetrahydroimidazo[-2,1-b]thiazole hydrochloride]	57	99	
CC1C=CCCC1C(=O)Nc1cccc(C2CN3CCSC3=N2)c1 (stereo not shown) [Example 7]	55	100	
O=C(Nc1cccc(C2CN3CCSC3=N2)c1)C1=CCCCCC1 (stereo not shown) [Example 10]	90	100	
O=C(Nc1cccc(C2CN3CCSC3=N2)c1)C1=CC2(CC=CCC2)CC=C1 (stereo not shown) [Example 12]	19	94	
O=C(Nc1cccc(C2CN3CCSC3=N2)c1)C1=CCCCC1 (stereo not shown) [Example 9]	76	99	
O=C(Nc1cccc(C2CN3CCSC3=N2)c1)C1CC=CCC1 (stereo not drawn) [Example 14a, 6-[3-(3-cyclohexen-1-ylcarboxamido)phenyl] -2,3,5,6-tetrahydroimidazo[2,l-b]thiazole]			effective against Brugia pahangi (adult Brugia pahangi): 100%; effective against ascarids (ascarids): 100%; effective against whipworm (whipworm): 100%; Activity % (Nematospiroides dubius; Dose 2.5 mg/kg): 100%; Activity % (Nematospiroides dubius; Dose 10 mg/kg): 100%; worms removed (Sheep Roundworms; single subcutaneous injection of 5 mg/kg, solution of hydrochloride in propylene glycol 70%/benzyl alcohol 4%/water): > 99.9%; active against lungworm (lungworm): 100%; effective against hookworm (hookworm): 100%
O=C(Nc1cccc(C2CN3CCSC3=N2)c1)C1=CC2(CC=C1)CCCC2 (stereo not shown) [Example 6]	45	100	
O=C(Nc1cccc(C2CN3CCSC3=N2)c1)C1C=CCCC1 (stereo not shown) [Example 5]	65	100	
CC1C=CCC(C(=O)Nc2cccc(C3CN4CCSC4=N3)c2)C1 (stereo not shown) [Example 8]	59	99	
O=C(Nc1cccc(C2CN3C=CSC3=N2)c1)C1CC=CCC1 (stereo not shown) [Example 15]	71	100	
O=C(Nc1cccc(C2CN3CCSC3=N2)c1)C1C=CCC1 (stereo not shown) [Example 4, 6-[3-(2-cyclopenten-1-ylcarboxamido)phenyl]-2,3,5,6-tetrahydroimidazo[2,1-b]thiazole]	100	100	
O=C(Nc1cccc(C2CN3CCSC3=N2)c1)C1CC=CCC1 (racemic) [Example 1]	55	99	removal of roundworms (Sheep Roundworms; single oral dose of 15 mg/kg, aqueous solution of hydrochloride salt): removed all roundworms present; activity (post-mortem fluke worm counts) (Fluke): > 95%; Fluke egg counts (Fluke; 3-4 days after dosing): zero
O=C(Nc1cccc(C2CN3CCSC3=N2)c1)C1CC=CC1 (stereo not shown) [Example 11]	84	100	
O=C(Nc1cccc(C2CN3CCSC3=N2)c1)C1=CCC=CC1 (stereo not shown) [Example 3]			Activity % (Nematospiroides dubius; Dose 5 mg/kg): 58%; Activity % (Nematospiroides dubius; Dose 50 mg/kg): 100%
